Patent publication US8530622B2, “Proteasome-activating anti-aging peptides and compositions containing same” (ISP Investments Inc., priority 2009, dated 2013)
Ends that are not written are not given here.

How the values were obtained:
[1] = tested on: volunteers; experiment: Clinical test: wrinkle and fine line measurement by QUANTIRIDE; format: in vivo, human; design: Depth of wrinkles, Measurement / Number of wrinkles, Measurement: unit not given here; settings: D 23-D 0, 2 mg/cm^2 twice a day, 12 volunteers
Description: 12 volunteers aged from 29 to 56 years applied either a placebo or the peptidic active principle of sequence ID No. 1 twice a day, morning and night, at a dose of 2 mg/cm^2 for 24 days. A clinical evaluation of the results enabled several wrinkle and fine line parameters to be measured.
The wrinkle and fine line measurement was carried out by QUANTIRIDE, which is an evaluation method that enables the number, length and depth of wrinkles to be measured by making a replica of the skin before and after treatment by using a silicone polymer.

[2] = molecular target: T1, 20S proteasome (Homo sapiens, UniProt P28072+P28074+Q99436); experiment: Enzymatic activity of 20S proteasome on aged keratinocytes maintained in culture (AMC-labeled substrates); format: cell-based; settings: 15 days culture, 1% peptide
T1 construct: After incubation of the cellular lysate with the synthetic substrate specific for the activity studied; endogenous in cells; host or cells: experimentally aged normal human keratinocytes (NHK) from human skin biopsies; activity measured in the cell lysate
Description: (§1) Normal Human Keratinocyte (NHK), cells are isolated from human skin biopsies. These cells are maintained in culture in a special keratinocyte-SFM medium (Invitrogen) at 37° C. under a humidified atmosphere of 5% CO2. Aged NHK cells are obtained by performing a series of repeated sub-cultures. Briefly the cells are seeded in 75 cm^2 flasks, at low density and cultured from 5 to 10 days between 2 passages. The cells are treated or not treated by the active principle, by adding the active principle directly into the culture medium 3 times per week. The cells are then maintained under these conditions for 45 days.
Experimentally aged keratinocytes maintained in culture for 15 days are treated with 1% of peptide SEQ ID No. 1. The enzymatic activities of 20S proteasome are then studied. In fact, 20S proteasome is the subunit responsible for enzymatic hydrolysis. Three enzymatic activities may be studied: Trypsin-like, chymotrypsin-like and peptidylglutamyl-peptide hydrolase (PGPH) activity. We are proposing to study these activities by a specific enzymatic assay of each activity.
The aged keratinocytes are maintained in culture for 15 days. The cell treatment is carried out by adding a solution at 1% of peptide SEQ ID No. 1 directly into the medium, renewed 3 times per week for the time of the experiment.
The assay of each activity was carried out by utilizing specific substrates labeled by a fluorescent compound 7-amido-4-methylcoumarin (AMC). After cleavage, the AMC excitation wavelength is 350 nm, the fluorescence is read at 440 nm. The fluorescence intensity is proportional to the quantity of fluorochrome obtained and consequently, this quantity is proportional to the quantity of hydrolyzed substrate.
The synthetic peptide Boc-Leu-Arg-Arg-AMC is specific for trypsin activity. […]
The cells are detached from the support in an extraction buffer. […] After incubation of the cellular lysate with the synthetic substrate specific for the activity studied, fluorescence is read with the Synergy spectrophotometer (BIOTEK, Vermont, USA) at 440 nm.

[3] = tested on: experimentally aged keratinocytes; experiment: Antiaging effect: beta-galactosidase (X-gal) labeling of experimentally aged keratinocytes in culture; format: cell-based, human; settings: keratinocytes aged 20 days, 1% peptide 3 times per week
Description: as §1
A study of the antiaging effect of the active principle was carried out by evaluating the expression of the beta-galactosidase protein on experimentally aged keratinocytes in culture. In fact, beta-galactosidase activity is known to be present in senescent cells while galactosidase activity is not found in pre-senescent, quiescent or immortal cells.
Keratinocytes experimentally aged in 8-well labteck are cultured and maintained for 20 days in the presence or not of 1% peptide of SEQ ID No. 1. The treatment is carried out 3 times per week by direct addition into the medium.
Untreated cells are maintained in culture for the same experiment time and will be used as controls. […]

trypsin-like activity of 20S proteasome, increase ([2]; substrate Boc-Leu-Arg-Arg-AMC): 155.3% | chymotrypsin-like activity of 20S proteasome, increase ([2]; substrate Suc-Leu-Leu-Val-Try-AMC): 130% | peptidylglutamyl-peptide hydrolase activity of 20S proteasome, increase ([2]; substrate Z-Leu-Leu-Glu-AMC): 144.6%
Substance: Asp-Cys-Arg-NH2 [SEQ ID No. 1]
Depth of wrinkles, Measurement [1]: −6.5557 | Length of wrinkles, Measurement [1]: −0.104 mm | Number of wrinkles, Measurement [1]: −9.5833 | Depth of wrinkles, % of volunteers with improvement ([1]; listed as Active peptide): 75% | Length of wrinkles, % of volunteers with improvement ([1]; listed as Active peptide): 83.3% | Number of wrinkles, % of volunteers with improvement ([1]; listed as Active peptide): 75% | Depth of wrinkles, % of volunteers with improvement ([1]; listed as active principle): 75% | Length of wrinkles, % of volunteers with improvement ([1]; listed as active principle): 83.3% | Number of wrinkles, % of volunteers with improvement ([1]; listed as active principle): 75% | beta-galactosidase activity in treated cells compared to untreated cells [3]: strongly reduced
